Reference: patent publication US8202870B2, “Substituted oxindole derivatives, medicaments containing the latter and use thereof” (Abbott GmbH & Co. KG, priority 2005, dated 2012)
Read-outs that look alike come from different tables or passages of the source.

Biological target: T1, human V1b receptors (Homo sapiens, UniProt P47901)
T1 construct: expressed in transfected cells; preparation V1b-3H2
T1 sequence (P47901 1-424): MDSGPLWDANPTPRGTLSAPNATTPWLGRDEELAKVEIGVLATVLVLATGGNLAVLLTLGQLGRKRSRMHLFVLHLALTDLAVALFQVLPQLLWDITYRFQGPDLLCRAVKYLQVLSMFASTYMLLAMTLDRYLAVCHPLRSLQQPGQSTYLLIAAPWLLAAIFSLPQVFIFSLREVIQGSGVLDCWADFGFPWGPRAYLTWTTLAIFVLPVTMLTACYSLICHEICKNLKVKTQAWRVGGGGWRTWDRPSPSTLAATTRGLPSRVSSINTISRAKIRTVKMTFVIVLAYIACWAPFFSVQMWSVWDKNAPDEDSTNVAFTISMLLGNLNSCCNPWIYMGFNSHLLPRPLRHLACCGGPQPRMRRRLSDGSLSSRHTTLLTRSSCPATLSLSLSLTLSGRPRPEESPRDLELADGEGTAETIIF
Assay: Vasopressin V1b receptor binding assay
Procedure: Vasopressin V1b Receptor Binding Assay:
This DMSO predilution series was diluted 1:10 with assay buffer. The substance concentration was further diluted 1:10 in the assay mixture.
The nonspecific binding was determined with 10^−6 M AVP. Determinations in triplicate were carried out.
The affinities for the human vasopressin V1b receptor were measured, and affinity constants determined, in the above assay for the inventive examples.
The affinities of the compounds (I) of the invention for the human vasopressin V1b receptor were measured in accordance with the above assays, and the affinity constants. (Ki) were determined. Table 1 below details the V1b receptor affinity of selected compounds (++ means <50 nM and + means 50-500 nM).

[1] = membranes from CHO-K1 cells with human V1b receptors, 3H-AVP displacement, read-out: V1b Ki
[2] = read-out: Ki values, affinity for the vasopressin V1b receptor

| SMILES | Ki [1] | Ki [2] |
| --- | --- | --- |
| CCOc1ccccc1C1(OC(=O)N2CCN(c3ccc(C#N)cn3)CC2)C(=O)N(S(=O)(=O)c2cccc3cccnc23)c2ccc(C#N)cc21 (stereo not drawn) [Example 11, 5-Cyano-3-(2-ethoxyphenyl)-2-oxo-1-(quinoline-8-sulfonyl)-2,3-dihydro-1H-indol-3-yl 4-(5-cyanopyridin-2-yl)piperazine-1-carboxylate] | < 50 nM | < 100 nM |
| CCOc1ccccc1C1(NC(=O)N2CCN(c3ccc(C#N)cn3)CC2)C(=O)N(S(=O)(=O)c2ccsc2)c2ccc(C#N)cc21 (stereo not drawn) [Example 10, 4-(5-Cyanopyridin-2-yl)piperazine-1-[5-cyano-3-(2-ethoxyphenyl)-2-oxo-1-(thien-3-ylsulfonyl)-2,3-dihydro-1H-indol-3-yl]carboxamide] | 50 to 500 nM | < 100 nM |
| CCOc1ccccc1C1(OC(=O)N2CCN(c3nccs3)CC2)C(=O)N(S(=O)(=O)c2ccsc2)c2ccc(C#N)cc21 (stereo not drawn) [Example 8, 5-Cyano-3-(2-ethoxyphenyl)-2-oxo-1-(thien-3-ylsulfonyl)-2,3-dihydro-1H-indol-3-yl 4-(thiazol-2-yl)piperazine-1-carboxylate] | 50 to 500 nM |  |
| CCOc1ccccc1C1(OC(=O)N2CCN(c3ccncc3)CC2)C(=O)N(S(=O)(=O)c2ccsc2)c2ccc(C#N)cc21 (stereo not drawn) [Example 4, 5-Cyano-3-(2-ethoxyphenyl)-2-oxo-1-(thien-3-ylsulfonyl)-2,3-dihydro-1H-indol-3-yl 4-(pyridin-4-yl)piperazine-1-carboxylate] | < 50 nM | < 100 nM |
| CCOc1ccccc1C1(OC(=O)N2CCN(c3ccncc3)CC2)C(=O)N(S(=O)(=O)c2cccc3cccnc23)c2ccc(C#N)cc21 (stereo not drawn) [Example 12, 5-Cyano-3-(2-ethoxyphenyl)-2-oxo-1-(quinoline-8-sulfonyl)-2,3-dihydro-1H-indol-3-yl 4-(pyridin-4-yl)piperazine-1-carboxylate] | < 50 nM | < 100 nM |
| CCOc1ccccc1C1(NC(=O)N2CCN(c3ccncc3)CC2)C(=O)N(S(=O)(=O)c2cccc3cccnc23)c2ccc(C#N)cc21 (stereo not drawn) [Example 2, 4-(Pyridin-4-yl)piperazin-1-[5-cyano-3-(2-ethoxyphenyl)-2-oxo-1-(quinoline-8-sulfonyl)-2,3-dihydro-1H-indol-3-yl]carboxamide] | < 50 nM | < 100 nM |
| CCOc1ccccc1C1(OC(=O)N2CCN(c3cnccn3)CC2)C(=O)N(S(=O)(=O)c2cccc3cccnc23)c2ccc(C#N)cc21 (stereo not drawn) [Example 7, 5-Cyano-3-(2-ethoxyphenyl)-2-oxo-1-(quinoline-8-sulfonyl)-2,3-dihydro-1H-indol-3-yl 4-(pyrazin-2-yl)piperazine-1-carboxylate] | 50 to 500 nM | < 100 nM |
| CCOc1ccccc1C1(OC(=O)N2CCN(c3ncccn3)CC2)C(=O)N(S(=O)(=O)c2cccc3cccnc23)c2ccc(C#N)cc21 (stereo not drawn) [Example 6, 5-Cyano-3-(2-ethoxyphenyl)-2-oxo-1-(quinoline-8-sulfonyl)-2,3-dihydro-1H-indol-3-yl 4-(pyrimidin-2-yl)piperazine-1-carboxylate] | < 50 nM | < 100 nM |
| CCOc1ccccc1C1(OC(=O)N2CCN(c3nccs3)CC2)C(=O)N(S(=O)(=O)c2cccc3cccnc23)c2ccc(C#N)cc21 (stereo not drawn) [Example 1, 5-Cyano-3-(2-ethoxyphenyl)-2-oxo-1-(quinoline-8-sulfonyl)-2,3-dihydro-1H-indol-3-yl 4-(thiazol-2-yl)piperazine-1-carboxylate] | < 50 nM | < 100 nM |
| CCOc1ccccc1C1(OC(=O)N2CCN(c3ccccn3)CC2)C(=O)N(S(=O)(=O)c2cccc3cccnc23)c2ccc(C#N)cc21 (stereo not drawn) [Example 5, 5-Cyano-3-(2-ethoxyphenyl)-2-oxo-1-(quinoline-8-sulfonyl)-2,3-dihydro-1H-indol-3-yl 4-(pyridin-2-yl)piperazine-1-carboxylate] | < 50 nM | < 100 nM |
| CCOc1ccccc1C1(NC(=O)N2CCN(c3ccncc3)CC2)C(=O)N(S(=O)(=O)c2ccsc2)c2ccc(C#N)cc21 (stereo not drawn) [Example 3, 4-(Pyridin-4-yl)piperazin-1-[5-cyano-3-(2-ethoxyphenyl)-2-oxo-1-(thien-3-yl-sulfonyl)-2,3-dihydro-1H-indol-3-yl]carboxamide] | < 50 nM | < 100 nM |
